What all share (type): physicochemical
Data set [1] is described as follows: Chemical stability in heaxane; EtOAc:MeOH:H2O-7 (9:1:9:1) after 41 days by qHNMR experiment. The conditions noted are these: hexane:EtOAc:MeOH:H2O (9:1:9:1) solvent mixture; read-out: Stability.
Data set [2] can be described thus: Chemical stability in CDCl3 after 46 days by qHNMR experiment. Particulars: read-out: Stability.
Data set [3] in a line: Chemical stability in CDCl3 after 46 days by GC-MS analysis. Particulars: read-out: Stability.
Data set [4] is described as follows: Chemical stability in DMSO after 41 days. The conditions noted are these: read-out: Stability.
Data set [5] is described as follows: Chemical stability in MeOH after 41 days. The conditions noted are these: read-out: Stability.

Take `CCC/C=C1\OC(=O)C2=C1CCC=C2` [LIGUSTILIDE]: the results for the remaining at 984 h in data set [1], in data set [4] and in data set [5] were 0.8%, 5.2% and 4.4%, respectively. The remaining at 1104 h in data set [2] came out at 78.1%; in data set [3] it was 91.6%.
